Tests used:
[1] = system: traumatically affected peripheral nerves; conditions: Wistar rats, B. Wattig et al. 1991; cited from earlier work
patients with lumbago = assay: Clinical study of UMP versus placebo in patients with lumbago; type: in vivo
Protocol: In the following the effectivity of pyrimidine nucleotides for the treatment of affections of the peripheral nervous system as well as for the stimulation of the regeneration of nerves is described by example of uridine-5′-monophosphate (UMP) by example of the indication lumbago. 80 female as well as male patients, aged between 20 and 63 years, were separated randomly into two groups, one was treated with UMP and the other with placebo. The treatment ranged over four consecutive days, whereas the treatment could be terminated ahead of schedule as soon as the symptoms were ameliorating in a way, that a further treatment was needless. Applied was once per day into a vein of the arm an injection solution of 19.349 mg UMP (this corresponds to a mass of 12.834 mg uridine) in 250 ml of physiological sodium chloride solution over a time period of 30 minutes. The comparison group received as placebo only the 250 ml of physiological sodium chloride solution without an active agent. For this clinical study only patients were chosen with a pain intensity of at least 40 mm on the VAS scale (VAS: visual analogue scale). The pain intensity is given on the linear VAS scale in the unit “mm” and was determined by prompting the patients to mark on the linear VAS scale the point, which corresponded to their respective pain intensity. Thereby a non sensible pain was given with the value 0 mm and the possibly maximum pain with the value 100 mm. The pain intensity of the patients was continuously checked, whereas the patients also had to indicate the respective duration of the single pain periods. Table 1 proves, that already after a short time period after the initial injection the pain intensity strongly decreases in the resting and moving state in the case of the UMP patient group. The finger-floor distance represents a measure for the mobility, i.e. for the grade of capability to bend the back, and is given in the unit “cm”, whereas the distance between the finger tip in the case of outstretched arms and the curvature in the case of maximal possible bending of the back was measured.

[2] = decrease in the UMP patient group
[3] = decrease of pain in the UMP patient group, VAS
[4] = difference of decrease, UMP versus placebo group

## Nc1ccn([C@@H]2O[C@H](COP(=O)(O)O)[C@@H](O)[C@H]2O)c(=O)n1 [CMP, cytidine-5′-monophosphate]
[1]
  Filament area of nerve filaments (myelin and axon areas): no comparable results

## O=c1ccn([C@@H]2O[C@H](COP(=O)(O)O)[C@@H](O)[C@H]2O)c(=O)[nH]1 [UMP, uridine-5′-monophosphate]
[1]
  Filament area of nerve filaments (myelin and axon areas): no comparable results
Patients with lumbago; UMP patient group, 24 h after inj., base line 100%
  Presence of myogelosis: 90%
Patients with lumbago; VAS scale, average of UMP patient group, 24 h after inj., 19.349 mg UMP i.v. once per day, base line 60.3
  Pain during resting state: 46.2 mm
Patients with lumbago; VAS scale, average of UMP patient group, 24 h after inj., base line 76.1
  Pain during movement: 56.9 mm
Patients with lumbago; average of UMP patient group, 24 h after inj., base line 15.8
  Daily duration of pain: 10.7 h
Patients with lumbago; average of UMP patient group, 24 h after inj., base line 43.8
  Finger-floor distance: 32.5 cm
Patients with lumbago; [2]
  Δ UMP, Daily duration of pain: -4.3 h
  Δ UMP, Finger-floor distance: −10.1 cm
Patients with lumbago; [3]
  Δ UMP, Pain during movement: −17.9 mm
  Δ UMP, Pain during resting state: −12.8 mm
Patients with lumbago; [4]
  Δ UMP − Δ Placebo, Daily duration of pain: -1.4 h
  Δ UMP − Δ Placebo, Finger-floor distance: −2.7 cm
  Δ UMP − Δ Placebo, Pain during movement: −6.8 mm
  Δ UMP − Δ Placebo, Pain during resting state: −3.4 mm
Patients with lumbago; during the further three days
  Absolute values of test parameters (pain, daily duration of pain, finger-floor distance) versus placebo group: always below the corresponding absolute values for the placebo group
Patients with lumbago; within the initial 24 h after the first injection
  Decrease in pain compared to placebo patients: clear decrease in pain

From patent US20050222078A1, “Use of pyrimidine nucleotides for the treatment of affections of the peripheral nervous system” (priority 2002, published 2005)
